{"source": "patent US6977247B2", "about": "“Sequential therapy comprising a 20(S)-camptothecin and a pyrimidine base analog” (SuperGen, Inc., priority 2002, dated 2005)", "origin": "cited, not measured here", "key": {"[1]": {"test_system": "various types of cancer, including primary cancer and metastasis", "conditions": "human, in vivo"}, "[2]": {"conditions": "administered intravenously; studies abandoned"}, "[3]": {"test_system": "human colon cancer xenografts", "conditions": "mouse, in vivo"}}}
{"smiles": "CC[C@@]1(O)C(=O)OCc2c1cc1n(c2=O)Cc2cc3c([N+](=O)[O-])cccc3nc2-1", "note": "[9NC, 9-nitrocamptothecin]", "values": [{"measurement": "growth of human tumor xenografts", "setting": "human tumor xenografts; immunodeficient nude mice", "result": "inhibited the growth"}, {"measurement": "regression of human tumors established as xenografts", "setting": "human tumor xenografts; nude mice", "result": "induced regression"}, {"measurement": "tumors known to regress after exposure", "setting": "[1]", "result": "breast carcinoma, ovarian carcinoma, cholangiocarcinoma, monomyelocytic leukemia, and pancreatic carcinoma"}]}
{"smiles": "CC[C@@](O)(C(=O)[O-])c1cc2n(c(=O)c1CO)Cc1cc3ccccc3nc1-2.[Na+]", "note": "[20(S)-camptothecin Na^+, sodium salt of 20(S)-camptothecin]", "values": [{"measurement": "potency in clinical trials", "setting": "[2]", "result": "low potency"}, {"measurement": "toxicity in clinical trials", "setting": "[2]", "result": "high toxicity"}]}
{"smiles": "CC[C@@]1(O)C(=O)OCc2c1cc1n(c2=O)Cc2cc3ccccc3nc2-1", "note": "[20(S)-camptothecin]", "values": [{"measurement": "solubility in water", "result": "insoluble in water"}]}
{"smiles": "CC[C@@]1(O)C(=O)OCc2c1cc1n(c2=O)Cc2cc3c(N)cccc3nc2-1", "note": "[9AC, 9-Amino-20(S)-Camptothecin]", "values": [{"measurement": "anticancer activity against human colon cancer xenografts", "setting": "[3]", "result": "high anticancer activity"}]}
{"smiles": "CC[C@@]1(O)C(=O)OCc2c1cc1n(c2=O)Cc2cc3cc4c(cc3nc2-1)OCO4", "note": "[10, 2011 MD, 10, 2011-Methylendioxy-20(S)-Camptothecin]", "values": [{"measurement": "anticancer activity against human colon cancer xenografts", "setting": "[3]", "result": "high anticancer activity"}]}
